How the values were obtained:
p-AXL = target: T1, p-AXL (Homo sapiens, UniProt P30530); assay: Axl phosphorylation inhibition ELISA in HEK293T cells transfected with NanoLuc-tagged AXL; type: cell-based; conditions: 1 h compound incubation, media (OptiMEM)
T1 construct: expressed in transfected cells; host or cells: HEK293T
T1 sequence (P30530 26-894): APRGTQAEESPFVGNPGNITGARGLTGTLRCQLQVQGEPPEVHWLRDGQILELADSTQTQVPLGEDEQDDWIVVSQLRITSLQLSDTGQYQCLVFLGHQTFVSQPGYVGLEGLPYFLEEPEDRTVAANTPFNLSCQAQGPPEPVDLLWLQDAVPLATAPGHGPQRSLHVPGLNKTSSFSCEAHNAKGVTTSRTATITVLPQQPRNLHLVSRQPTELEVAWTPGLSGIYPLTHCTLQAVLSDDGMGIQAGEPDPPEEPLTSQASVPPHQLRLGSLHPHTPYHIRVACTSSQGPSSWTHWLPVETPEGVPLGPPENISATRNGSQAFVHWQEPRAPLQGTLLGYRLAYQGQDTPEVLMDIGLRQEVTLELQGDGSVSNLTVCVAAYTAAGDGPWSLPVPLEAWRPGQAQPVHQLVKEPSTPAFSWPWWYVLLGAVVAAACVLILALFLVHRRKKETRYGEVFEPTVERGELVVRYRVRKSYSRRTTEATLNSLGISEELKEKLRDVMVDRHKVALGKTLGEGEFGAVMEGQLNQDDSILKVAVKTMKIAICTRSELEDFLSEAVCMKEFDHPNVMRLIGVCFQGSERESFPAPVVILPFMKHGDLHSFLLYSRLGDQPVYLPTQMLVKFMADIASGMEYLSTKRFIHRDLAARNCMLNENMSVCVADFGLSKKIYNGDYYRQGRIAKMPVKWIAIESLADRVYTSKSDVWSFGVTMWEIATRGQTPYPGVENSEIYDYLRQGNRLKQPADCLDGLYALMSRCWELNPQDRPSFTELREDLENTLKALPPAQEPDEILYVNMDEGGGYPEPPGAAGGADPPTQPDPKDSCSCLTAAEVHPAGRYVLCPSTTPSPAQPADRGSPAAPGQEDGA
In short: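 Phospho-AXL detected by luminescence of NanoLuc tag after capture of cell lysate on biotinylated anti-phospho-tyrosine mAb plates (2 h). Lysates came from transiently transfected HEK293T cells treated 1 h at 37° C with serial 2-fold dilutions (22 points). IC50 by standard 4-parameter logistic fitting.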

Axl = target: T2, Axl (Homo sapiens, UniProt P30530); assay: Biochemical potency, HTRF KinEASE-TK kinase assay; parameters: purchased Invitrogen; conditions: 5 nM AXL, 700 μM ATP
T2 sequence (P30530 26-894): T1 sequence (P30530 26-894)
In short: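 Enzyme (AXL 5 nM; TYRO3 or MER 1 nM final) was preincubated with compound for 1 h at RT, then reacted for 2 h at RT with 800 nM biotinylated TK substrate and 700 µM ATP in HEPES pH 7.4, MgCl2, DTT, BSA, 1% DMSO. Percent activity came from the HTRF 665/620 ratio.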

| Structure (SMILES) | IC50 (p-AXL) [nM] | IC50 (Axl) [nM] |
| --- | --- | --- |
| CCc1cccnc1-c1ccc(-c2n[nH]c3ncc(-c4ccc5c(c4)CC[C@@H](N4C6COCC4C6)CC5)cc23)cc1 [Example 182, 6-[(7S)-2-{3-[4-(3-Ethylpyridin-2-yl)phenyl]-1H-pyrazolo[3,4-b]pyridin-5-yl}-6,7,8,9-tetrahydro-5H-benzo[7]annulen-7-yl]-3-oxa-6-azabicyclo[3.1.1]heptane] | < 100 | < 100 |
| C[C@@H]1CCCN1[C@@]1(C)CCc2ccc(-c3cnc4[nH]nc(-c5ccc(-c6ncnn6C)cc5)c4c3)cc2CC1 [Example 112, 1-Methyl-5-(4-{5-[(7S)-7-methyl-7-[(2R)-2-methylpyrrolidin-1-yl]-6,7,8,9-tetrahydro-5H-benzo[7]annulen-2-yl]-1H-pyrazolo[3,4-b]pyridin-3-yl}phenyl)-1H-1,2,4-triazole] | < 100 | < 100 |
| CN(C)C(=O)c1cccnc1-c1ccc(-c2n[nH]c3ncc(-c4ccc5c(c4)CC[C@@H](N4C6COCC4C6)CC5)cc23)cc1 [Example 167, N,N-Dimethyl-2-(4-{5-[(7S)-7-{3-oxa-6-azabicyclo[3.1.1]heptan-6-yl}-6,7,8,9-tetrahydro-5H-benzo[7]annulen-2-yl]-1H-pyrazolo[3,4-b]pyridin-3-yl}phenyl)pyridine-3-carboxamide] | < 100 | < 100 |
| Cc1cccnc1-c1ccc(-c2c[nH]c3ncc(-c4ccc5c(c4)CC[C@@H](N4C6COCC4C6)CC5)cc23)nc1 [Example 96, 3-Methyl-6′-{5-[(7S)-7-{3-oxa-6-azabicyclo[3.1.1]heptan-6-yl}-6,7,8,9-tetrahydro-5H-benzo[7]annulen-2-yl]-1H-pyrrolo[2,3-b]pyridin-3-yl}-2,3′-bipyridine] | < 100 | < 100 |
| COc1cccnc1-c1ccc(-c2n[nH]c3ncc(-c4ccc5c(c4)CC[C@@H](N4C6COCC4C6)CC5)cc23)cc1 [Example 166, 6-[(7S)-2-{3-[4-(3-Methoxypyridin-2-yl)phenyl]-1H-pyrazolo[3,4-b]pyridin-5-yl}-6,7,8,9-tetrahydro-5H-benzo[7]annulen-7-yl]-3-oxa-6-azabicyclo[3.1.1]heptane] | < 100 | < 100 |
| COc1cccnc1-c1ccc(-c2c[nH]c3ncc(-c4ccc5c(c4)CC[C@@H](N4C6COCC4C6)CC5)cc23)cc1 [Example 164, 6-[(7S)-2-{3-[4-(3-Methoxypyridin-2-yl)phenyl]-1H-pyrrolo[2,3-b]pyridin-5-yl}-6,7,8,9-tetrahydro-5H-benzo[7]annulen-7-yl]-3-oxa-6-azabicyclo[3.1.1]heptane] | < 100 | < 100 |
| Cc1ccc(-c2ccc(-c3n[nH]c4ncc(-c5ccc6c(c5)CC[C@@H](N5C7COCC5C7)CC6)cc34)cc2)nc1 [Example 115, 6-[(7S)-2-{3-[4-(5-Methylpyridin-2-yl)phenyl]-1H-pyrazolo[3,4-b]pyridin-5-yl}-6,7,8,9-tetrahydro-5H-benzo[7]annulen-7-yl]-3-oxa-6-azabicyclo[3.1.1]heptane] | 100 to 1000 | < 100 |
| CC(C)(C#N)c1cccnc1-c1ccc(-c2c[nH]c3ncc(-c4ccc5c(c4)CC[C@@H](N4C6COCC4C6)CC5)cc23)cc1 [Example 21, 2-Methyl-2-[2-[4-[5-[(7S)-7-(3-oxa-6-azabicyclo[3.1.1]heptan-6-yl)-6,7,8,9-tetrahydro-5H-benzo[7]annulen-3-yl]-1H-pyrrolo[2,3-b]pyridin-3-yl]phenyl]pyridin-3-yl]propanenitrile] | < 100 | < 100 |
| Cc1ccnc(-c2ccc(-c3n[nH]c4ncc(-c5ccc6c(c5)CC[C@@H](N5C7COCC5C7)CC6)cc34)cc2)c1 [Example 117, 6-[(7S)-2-{3-[4-(4-Methylpyridin-2-yl)phenyl]-1H-pyrazolo[3,4-b]pyridin-5-yl}-6,7,8,9-tetrahydro-5H-benzo[7]annulen-7-yl]-3-oxa-6-azabicyclo[3.1.1]heptane] | 100 to 1000 | < 100 |

Source: US12195482B1 (Arcus Biosciences, Inc., priority 2022, dated 2025)
